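Tested at 5 concentrations; 48 h exposure; 96-well plates; endpoints linearly interpolated, else capped at highest concentration. Definition used: TGI = concentration required for complete inhibition of growth.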
Legend:
Test in all cases: growth of human tumour cells (NCI), 48 h
786-0 renal = tested on: 786-0 renal
A498 renal = tested on: A498 renal
A549 NSCLC = tested on: A549 NSCLC
ACHN renal = tested on: ACHN renal
BT-549 breast = tested on: BT-549 breast
CAKI-1 renal = tested on: CAKI-1 renal
CCRF-CEM leukemia = tested on: CCRF-CEM leukemia
COLO 205 colon = tested on: COLO 205 colon
DU-145 prostate = tested on: DU-145 prostate
EKVX NSCLC = tested on: EKVX NSCLC
HCC-2998 colon = tested on: HCC-2998 colon
HCT-116 colon = tested on: HCT-116 colon
HCT-15 colon = tested on: HCT-15 colon
HL-60(TB) leukemia = tested on: HL-60(TB) leukemia
HOP-62 NSCLC = tested on: HOP-62 NSCLC
HOP-92 NSCLC = tested on: HOP-92 NSCLC
HS 578T breast = tested on: HS 578T breast
HT29 colon = tested on: HT29 colon
KM12 colon = tested on: KM12 colon
LOX IMVI melanoma = tested on: LOX IMVI melanoma
M14 melanoma = tested on: M14 melanoma
MALME-3M melanoma = tested on: MALME-3M melanoma
MCF7 breast = tested on: MCF7 breast
MDA-MB-231 breast = tested on: MDA-MB-231 breast
MDA-MB-435 = tested on: MDA-MB-435
MDA-N = tested on: MDA-N
MOLT-4 leukemia = tested on: MOLT-4 leukemia
NCI-H226 lung = tested on: NCI-H226 lung
NCI-H23 lung = tested on: NCI-H23 lung
NCI-H460 lung = tested on: NCI-H460 lung
NCI-H522 lung = tested on: NCI-H522 lung
NCI/ADR-RES ovarian = tested on: NCI/ADR-RES ovarian
OVCAR-3 ovarian = tested on: OVCAR-3 ovarian
OVCAR-4 ovarian = tested on: OVCAR-4 ovarian
OVCAR-5 ovarian = tested on: OVCAR-5 ovarian
OVCAR-8 ovarian = tested on: OVCAR-8 ovarian
PC-3 prostate = tested on: PC-3 prostate
RPMI-8226 leukemia = tested on: RPMI-8226 leukemia
RXF 393 renal = tested on: RXF 393 renal
SF-268 CNS = tested on: SF-268 CNS
SF-295 CNS = tested on: SF-295 CNS
SF-539 CNS = tested on: SF-539 CNS
SK-MEL-2 melanoma = tested on: SK-MEL-2 melanoma
SK-MEL-28 melanoma = tested on: SK-MEL-28 melanoma
SK-MEL-5 melanoma = tested on: SK-MEL-5 melanoma
SK-OV-3 ovarian = tested on: SK-OV-3 ovarian
SN12C renal = tested on: SN12C renal
SNB-19 CNS = tested on: SNB-19 CNS
SNB-75 CNS = tested on: SNB-75 CNS
SW-620 colon = tested on: SW-620 colon
T-47D breast = tested on: T-47D breast
TK-10 renal = tested on: TK-10 renal
U251 CNS = tested on: U251 CNS
UACC-257 melanoma = tested on: UACC-257 melanoma
UACC-62 melanoma = tested on: UACC-62 melanoma
UO-31 renal = tested on: UO-31 renal
IGROV1 ovarian = tested on: IGROV1 ovarian
K-562 leukemia = tested on: K-562 leukemia

Measured: TGI

CCSc1cc(=O)n(C)c(=O)n1C
not listed: IGROV1 ovarian | K-562 leukemia
> 100 µM: all other assays above

C/C(=C/C(=O)Nn1c(Cc2ccccc2)n[nH]c1=O)C(=O)O
not listed: A498 renal | HOP-92 NSCLC
> 100 µM: all other assays above

From PubChem BioAssay (NCI)
